From patent US9113629B2, “4-amino-6-(4-substituted-phenyl)-picolinates and 6-amino-2-(4-substituted-phenyl)-pyrimidine-4-carboxylates and their use as herbicides” (DOW AGROSCIENCES LLC, priority 2013, dated 2015)
Read-outs that look alike come from different tables or passages of the source.

Legend:
[1] = test system: Key Broadleaf Weed and Crop Species; assay: Post-emergent Test II herbicidal activity (Table 5); assay type: in vivo; conditions: post-emergence, 336 h, 14 days after application; for pest or weed control at 70 g/ha: application rate 70 g ai/ha; for pest or weed control at 140 g/ha: application rate 140 g ai/ha
Outline: (§1)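 Greenhouse post-emergent assay: seedlings (first/second true leaf) in Metro-Mix 360 were sprayed at 187 L/ha at a top rate plus twofold dilutions down to 1/16×; solvent-blank controls were included. Percent visual injury was read at 14 d.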

[2] = test system: Key Grass and Sedge Weeds as well as Grass Crops; assay: Post-emergent Test II herbicidal activity (Table 6); assay type: in vivo; conditions: post-emergence, 336 h; for pest or weed control at 70 g/ha: 70 g ai/ha; for pest or weed control at 140 g/ha: 140 g ai/ha
Outline: as §1

[3] = ABUTH: velvetleaf (Abutilon theophrasti), read-out: Visual Growth Reduction (%) 14 Days After Application, ABUTH
[4] = AMARE: redroot pigweed (Amaranthus retroflexus), read-out: Visual Growth Reduction (%) 14 Days After Application, AMARE
[5] = BRSNN: oilseed-rape, canola (Brassica napus), read-out: Visual Growth Reduction (%) 14 Days After Application, BRSNN
[6] = CHEAL: lambsquarters (Chenopodium album), read-out: Visual Growth Reduction (%) 14 Days After Application, CHEAL
[7] = EPHHL: wild poinsettia (Euphorbia heterophylla), read-out: Visual Growth Reduction (%) 14 Days After Application, EPHHL
[8] = HELAN: sunflower (Helianthus annuus), read-out: Visual Growth Reduction (%) 14 Days After Application, HELAN
[9] = VIOTR: wild pansy (Viola tricolor), read-out: Visual Growth Reduction (%) 14 Days After Application, VIOTR
[10] = CYPES: yellow nutsedge (Cyperus esculentus), read-out: Visual Growth Reduction (%) 14 Days After Application, CYPES
[11] = DIGSA: crabgrass (Digitaria sanguinalis), read-out: Visual Growth Reduction (%) 14 Days After Application, DIGSA
[12] = ECHCG: barnyardgrass (Echinochloa crus-galli), read-out: Visual Growth Reduction (%) 14 Days After Application, ECHCG
[13] = ORYSA: rice (Oryza sativa), crop, read-out: Visual Growth Reduction (%) 14 Days After Application, ORYSA
[14] = SETFA: giant foxtail (Setaria faberi), read-out: Visual Growth Reduction (%) 14 Days After Application, SETFA
[15] = SORVU: grain sorghum (Sorghum vulgare), read-out: Visual Growth Reduction (%) 14 Days After Application, SORVU
[16] = TRZSS (wheat, Triticum aestivum), crop, read-out: Visual Growth Reduction (%) 14 Days After Application, TRZSS
[17] = ZEAMX: maize, corn (Zea mays), crop, read-out: Visual Growth Reduction (%) 14 Days After Application, ZEAMX

Row | SMILES | pest or weed control at 70 g/ha [1, 3] [%] | pest or weed control at 140 g/ha [1, 3] [%] | pest or weed control at 70 g/ha [1, 4] [%] | pest or weed control at 140 g/ha [1, 4] [%] | pest or weed control at 70 g/ha [1, 5] [%] | pest or weed control at 140 g/ha [1, 5] [%] | pest or weed control at 70 g/ha [1, 6] [%] | pest or weed control at 140 g/ha [1, 6] [%] | pest or weed control at 70 g/ha [1, 7] [%] | pest or weed control at 140 g/ha [1, 7] [%] | pest or weed control at 70 g/ha [1, 8] [%] | pest or weed control at 140 g/ha [1, 8] [%] | pest or weed control at 70 g/ha [1, 9] [%] | pest or weed control at 140 g/ha [1, 9] [%] | pest or weed control at 70 g/ha [2, 10] [%] | pest or weed control at 140 g/ha [2, 10] [%] | pest or weed control at 70 g/ha [2, 11] [%] | pest or weed control at 140 g/ha [2, 11] [%] | pest or weed control at 70 g/ha [2, 12] [%] | pest or weed control at 140 g/ha [2, 12] [%] | other results
1 | COC(=O)c1nc(-c2ccc(F)c(F)c2F)c(F)c(N)c1Cl [Compound 186] | 95 to 100 | 95 to 100 | 95 to 100 | 95 to 100 | 85 to 94 | 95 to 100 | 95 to 100 | 95 to 100 | 95 to 100 | 95 to 100 | 85 to 94 | 95 to 100 | 85 to 94 | 95 to 100 | 85 to 94 | 85 to 94 | 45 to 59 | 60 to 74 | 85 to 94 | 95 to 100 | pest or weed control at 70 g/ha [2, 13]: 0 to 29%; pest or weed control at 140 g/ha [2, 13]: 30 to 44%; pest or weed control at 70 g/ha [2, 14]: 0 to 29%; pest or weed control at 140 g/ha [2, 14]: 60 to 74%; pest or weed control at 70 g/ha [2, 15]: 60 to 74%; pest or weed control at 140 g/ha [2, 15]: 75 to 84%; pest or weed control at 70 g/ha [2, 16]: 60 to 74%; pest or weed control at 140 g/ha [2, 16]: 60 to 74%; pest or weed control at 70 g/ha [2, 17]: 75 to 84%; pest or weed control at 140 g/ha [2, 17]: 85 to 94%; melting point: 147 to 148 °C
2 | COC(=O)c1ccc(-c2nc(C(=O)OC)c(Cl)c(N)c2F)cc1 [Compound 190, methyl 4-amino-3-chloro-5-fluoro-6-(4-(methoxycarbonyl)phenyl)picolinate] | 0 to 29 | 0 to 29 | 0 to 29 | 30 to 44 | 0 to 29 | 0 to 29 | 60 to 74 | 30 to 44 | 0 to 29 | 0 to 29 | 0 to 29 | 0 to 29 | 0 to 29 | 0 to 29 | 0 to 29 | 0 to 29 | 0 to 29 | 0 to 29 | 0 to 29 | 0 to 29 | pest or weed control at 70 g/ha [2, 13]: 0 to 29%; pest or weed control at 140 g/ha [2, 13]: 0 to 29%; pest or weed control at 70 g/ha [2, 14]: 0 to 29%; pest or weed control at 140 g/ha [2, 14]: 0 to 29%; pest or weed control at 70 g/ha [2, 15]: 0 to 29%; pest or weed control at 140 g/ha [2, 15]: 0 to 29%; pest or weed control at 70 g/ha [2, 16]: 0 to 29%; pest or weed control at 140 g/ha [2, 16]: 0 to 29%; pest or weed control at 70 g/ha [2, 17]: 0 to 29%; pest or weed control at 140 g/ha [2, 17]: 0 to 29%; melting point: 163 to 165 °C
